Consider 5 molecules from patent publication EP4810052A2, “HCRHR2 SELECTIVE POLYPEPTIDES” (Gubra A/S, priority 2023, dated 2026).

One test concerns the target T1, hCRHR1 (Homo sapiens, UniProt P34998).
T1 sequence (P34998 24-415): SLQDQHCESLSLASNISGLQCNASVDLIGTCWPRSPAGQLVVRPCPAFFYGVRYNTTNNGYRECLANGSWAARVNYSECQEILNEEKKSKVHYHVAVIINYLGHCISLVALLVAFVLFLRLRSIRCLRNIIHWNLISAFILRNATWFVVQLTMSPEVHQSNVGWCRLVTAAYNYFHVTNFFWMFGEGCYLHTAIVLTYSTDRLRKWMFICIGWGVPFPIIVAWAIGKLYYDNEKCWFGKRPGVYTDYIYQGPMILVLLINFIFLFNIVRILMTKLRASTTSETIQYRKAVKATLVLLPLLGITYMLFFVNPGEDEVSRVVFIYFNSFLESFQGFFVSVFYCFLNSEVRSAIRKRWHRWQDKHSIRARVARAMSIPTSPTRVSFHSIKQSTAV
The experiment in a line: HTRF cAMP assay, determination of hCRHR1 potency (peptide libraries 5 conc., purified peptides 11 conc.). In kind it is cell-based. Put shortly:
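CHO-K1 cells stably expressing human CRHR1, thawed from frozen stocks just before use, were stimulated in suspension with agonist peptides. cAMP was measured by HTRF competitive immunoassay (cryptate anti-cAMP antibody vs d2-cAMP).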

The next test deals with T2, hCRHR2 (Homo sapiens, UniProt Q13324).
T2 sequence (Q13324 1-411): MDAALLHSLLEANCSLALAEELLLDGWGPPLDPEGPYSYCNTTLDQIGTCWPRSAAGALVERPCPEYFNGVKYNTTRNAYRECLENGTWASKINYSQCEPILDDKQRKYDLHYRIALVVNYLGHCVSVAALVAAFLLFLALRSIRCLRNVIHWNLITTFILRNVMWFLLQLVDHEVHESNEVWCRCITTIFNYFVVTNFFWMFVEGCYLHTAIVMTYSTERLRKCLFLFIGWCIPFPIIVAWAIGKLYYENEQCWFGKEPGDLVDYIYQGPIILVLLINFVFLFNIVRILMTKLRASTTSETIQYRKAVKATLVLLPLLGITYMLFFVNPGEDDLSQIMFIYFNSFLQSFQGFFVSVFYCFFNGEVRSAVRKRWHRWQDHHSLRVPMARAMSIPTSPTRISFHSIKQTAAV
The experiment in a line: HTRF cAMP assay, determination of hCRHR2 potency (peptide libraries 5 conc., purified peptides 11 conc.). In kind it is cell-based. Put shortly:
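CHO-K1 cells stably expressing human CRHR2, thawed from frozen stocks just before use and run in suspension; cAMP measured by competitive HTRF immunoassay (cryptate anti-cAMP, d2-cAMP). Agonist peptides tested at 5 (libraries) or 11 (purified) concentrations; EC50 from sigmoid variable-slope nonlinear regression.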

[1] abbreviates: library peptides, matched molecular pairs L vs Nle in position X^38, read-out: Potency hCRHR1 pEC50 (converted).
Setting [2] is: library peptides, matched molecular pairs L vs Nle in position X^38, read-out: Potency hCRHR2 pEC50 (converted).
[3] abbreviates: Table 3, matched molecular pairs X^38 L vs Nle, peptide library of Example 4, read-out: hCRHR1 pEC50 (converted).
The mark [4] stands for this setting: Table 3, matched molecular pairs X^38 L vs Nle, peptide library of Example 4, read-out: hCRHR2 pEC50 (converted).

Like-named read-outs stand apart in the source and are kept apart here. Starred links: 1 amine or outer side, 2 acyl side, 3 side chain; linkers in the order of their positions; H or OH if unused. Non-standard residues stand in square brackets, D forms with d. Residues, ends and D or L forms follow the SMILES beside them. Groups on a side chain read outwards from the residue. *: point of attachment. C20 diacid = O=C(O)CCCCCCCCCCCCCCCCCCC(=O)*; γGlu = O=C(O)[C@H](CCC(=O)[*:2])N[*:1]; NMeI = CC[C@H](C)[C@H](NC)C(=O)O; Nle = CCCC[C@H](N)C(=O)O; Ac5c = NC1(C(=O)O)CCCC1; AEEA = NCCOCCOCC(=O)O; Aib = CC(C)(N)C(=O)O

Consider `CCCC[C@H](NC(=O)[C@@H](NC(=O)[C@H](CCC(=O)O)NC(=O)[C@H](C)NC(=O)[C@H](CC(N)=O)NC(=O)C(C)(C)NC(=O)[C@H](CCCCNC(=O)COCCOCCNC(=O)COCCOCCNC(=O)CC[C@H](NC(=O)CC[C@H](NC(=O)CCCCCCCCCCCCCCCCCCC(=O)O)C(=O)O)C(=O)O)NC(=O)[C@H](C)NC(=O)[C@H](CCC(N)=O)NC(=O)[C@H](CCC(=O)O)NC(=O)[C@H](CCCNC(=N)N)NC(=O)[C@H](C)NC(=O)[C@H](C)NC(=O)[C@H](CCCNC(=N)N)NC(=O)[C@H](C)NC(=O)[C@H](CCCNC(=N)N)NC(=O)[C@H](C)NC(=O)[C@H](CCC(N)=O)NC(=O)[C@@H](NC(=O)[C@H](CC(C)C)NC(=O)[C@H](CC(C)C)NC(=O)[C@@H](NC(=O)[C@H](CCC(N)=O)NC(=O)[C@H](CC(C)C)NC(=O)[C@H](CC(C)C)NC(=O)CNC(=O)[C@@H](NC(=O)[C@@H]1CCCN1C(=O)[C@@H](NC(=O)[C@H](CC(=O)O)NC(=O)[C@H](CC(C)C)NC(=O)[C@H](CO)NC(=O)[C@H](CC(C)C)NC(=O)[C@@H](NC(=O)[C@@H](NC)[C@@H](C)CC)C(C)C)C(C)C)[C@@H](C)CC)[C@@H](C)CC)[C@@H](C)O)[C@@H](C)CC)C(=O)N[C@@H](C)C(=O)N[C@@H](CCC(=O)O)C(=O)N[C@H](C(N)=O)C(C)C` [compound 134] (H-[NMeI]VLSLDVPIGLLQILLTQARARAAREQAK([AEEA-AEEA-γGlu-γGlu-C20 diacid])[Aib]NAEI[Nle]AEV-NH2), for which the EC50 at hCRHR1 (Table 4, library peptides having X^38 = Nle, read-out: hCRHR1 pEC50 (converted)) was 794 nM; on hCRHR2 (Table 4, library peptides having X^38 = Nle, read-out: hCRHR2 pEC50 (converted)), 0.00794 nM.

Consider `CC[C@H](C)[C@H](N)C(=O)N[C@H](C(=O)N[C@@H](CC(C)C)C(=O)N[C@@H](CO)C(=O)N[C@@H](CC(C)C)C(=O)N[C@@H](CC(=O)O)C(=O)NC1(C(=O)N2CCC[C@H]2C(=O)N[C@H](C(=O)NCC(=O)N[C@@H](CC(C)C)C(=O)N[C@@H](CC(C)C)C(=O)N[C@@H](CCC(N)=O)C(=O)N[C@H](C(=O)N[C@@H](CC(C)C)C(=O)N[C@@H](CC(C)C)C(=O)N[C@@H](CCC(=O)O)C(=O)N[C@@H](CCC(N)=O)C(=O)N[C@@H](C)C(=O)N[C@@H](CCCNC(=N)N)C(=O)N[C@@H](C)C(=O)N[C@@H](CCCNC(=N)N)C(=O)N[C@@H](CCC(N)=O)C(=O)N[C@@H](C)C(=O)N[C@@H](CCCNC(=N)N)C(=O)N[C@@H](CCC(=O)O)C(=O)N[C@@H](CCC(N)=O)C(=O)N[C@@H](C)C(=O)N[C@@H](CCCCNC(=O)COCCOCCNC(=O)COCCOCCNC(=O)CC[C@H](NC(=O)CC[C@H](NC(=O)CCCCCCCCCCCCCCCCCCC(=O)O)C(=O)O)C(=O)O)C(=O)N[C@H](C(=O)N[C@@H](CC(N)=O)C(=O)N[C@@H](C)C(=O)N[C@@H](CCC(=O)O)C(=O)N[C@H](C(=O)N[C@@H](CC(C)C)C(=O)N[C@@H](C)C(=O)N[C@@H](CCC(=O)O)C(=O)N[C@H](C(N)=O)C(C)C)[C@@H](C)CC)[C@@H](C)O)[C@@H](C)CC)[C@@H](C)CC)CCCC1)C(C)C` [compound 78] (H-IVLSLD[Ac5c]PIGLLQILLEQARARQAREQAK([AEEA-AEEA-γGlu-γGlu-C20 diacid])TNAEILAEV-NH2), for which the EC50 on hCRHR1 (setting [1]) is 7.94 nM; at hCRHR2 (setting [2]), 0.398 nM.

With `CCCC[C@H](NC(=O)[C@@H](NC(=O)[C@H](CCC(=O)O)NC(=O)[C@H](C)NC(=O)[C@H](CC(N)=O)NC(=O)[C@@H](NC(=O)[C@H](CCCCNC(=O)COCCOCCNC(=O)COCCOCCNC(=O)CC[C@H](NC(=O)CC[C@H](NC(=O)CCCCCCCCCCCCCCCCCCC(=O)O)C(=O)O)C(=O)O)NC(=O)[C@H](C)NC(=O)[C@H](CCC(N)=O)NC(=O)[C@H](CCC(=O)O)NC(=O)[C@H](CCCNC(=N)N)NC(=O)[C@H](C)NC(=O)[C@H](C)NC(=O)[C@H](CCC(=O)O)NC(=O)[C@H](C)NC(=O)[C@H](CCCNC(=N)N)NC(=O)[C@H](C)NC(=O)[C@H](CCC(N)=O)NC(=O)[C@H](CCC(=O)O)NC(=O)[C@H](CC(C)C)NC(=O)[C@H](CC(C)C)NC(=O)[C@@H](NC(=O)[C@H](CCC(N)=O)NC(=O)[C@H](CC(C)C)NC(=O)[C@H](CC(C)C)NC(=O)CNC(=O)[C@@H](NC(=O)[C@@H]1CCCN1C(=O)[C@@H](NC(=O)[C@H](CC(=O)O)NC(=O)[C@H](CC(C)C)NC(=O)[C@H](CO)NC(=O)[C@H](CC(C)C)NC(=O)[C@@H](NC(=O)[C@@H](N)[C@@H](C)CC)C(C)C)C(C)C)[C@@H](C)CC)[C@@H](C)CC)[C@@H](C)O)[C@@H](C)CC)C(=O)N[C@@H](C)C(=O)N[C@@H](CCC(=O)O)C(=O)N[C@H](C(N)=O)[C@@H](C)CC` [SEQ ID NO: 24] (H-IVLSLDVPIGLLQILLEQARAEAAREQAK([AEEA-AEEA-γGlu-γGlu-C20 diacid])TNAEI[Nle]AEI-NH2), the EC50 at hCRHR1 (setting [3]) was 1000 nM; on hCRHR2 (setting [4]) it was 0.398 nM.

Take `CCCC[C@H](NC(=O)[C@@H](NC(=O)[C@H](CCC(=O)O)NC(=O)[C@H](C)NC(=O)[C@H](CC(N)=O)NC(=O)[C@@H](NC(=O)[C@H](CCCCNC(=O)COCCOCCNC(=O)COCCOCCNC(=O)CC[C@H](NC(=O)CC[C@H](NC(=O)CCCCCCCCCCCCCCCCCCC(=O)O)C(=O)O)C(=O)O)NC(=O)[C@H](C)NC(=O)[C@H](CCC(N)=O)NC(=O)[C@H](CCC(=O)O)NC(=O)[C@H](CCCNC(=N)N)NC(=O)[C@H](C)NC(=O)[C@H](CCC(N)=O)NC(=O)[C@H](CCCNC(=N)N)NC(=O)[C@H](C)NC(=O)[C@H](CCCNC(=N)N)NC(=O)[C@H](C)NC(=O)[C@H](CCC(N)=O)NC(=O)[C@H](CCC(=O)O)NC(=O)[C@H](CC(C)C)NC(=O)[C@H](CC(C)C)NC(=O)[C@@H](NC(=O)[C@H](CCC(N)=O)NC(=O)[C@H](CC(C)C)NC(=O)[C@H](CC(C)C)NC(=O)CNC(=O)[C@@H](NC(=O)[C@@H]1CCCN1C(=O)[C@@H](NC(=O)[C@H](CC(=O)O)NC(=O)[C@H](CC(C)C)NC(=O)[C@H](CO)NC(=O)[C@H](CC(C)C)NC(=O)[C@@H](NC(=O)[C@@H](N)[C@@H](C)CC)C(C)C)C(C)C)[C@@H](C)CC)[C@@H](C)CC)[C@@H](C)O)[C@@H](C)CC)C(=O)N[C@@H](C)C(=O)N[C@@H](CCC(=O)O)C(=O)N[C@H](C(N)=O)[C@@H](C)CC` [SEQ ID NO: 30] (H-IVLSLDVPIGLLQILLEQARARQAREQAK([AEEA-AEEA-γGlu-γGlu-C20 diacid])TNAEI[Nle]AEI-NH2): the results for the EC50 at hCRHR1 (setting [3]) and on hCRHR2 (setting [4]) were 1580 nM and 0.126 nM, respectively.

Regarding `CC[C@H](C)[C@H](N)C(=O)N[C@H](C(=O)N[C@@H](CC(C)C)C(=O)N[C@@H](CO)C(=O)N[C@@H](CC(C)C)C(=O)N[C@@H](CC(=O)O)C(=O)N[C@H](C(=O)N1CCC[C@H]1C(=O)N[C@H](C(=O)NCC(=O)N[C@@H](CC(C)C)C(=O)N[C@@H](CC(C)C)C(=O)N[C@@H](CCC(N)=O)C(=O)N[C@H](C(=O)N[C@@H](CC(C)C)C(=O)N[C@@H](CC(C)C)C(=O)N[C@@H](CCC(=O)O)C(=O)N[C@@H](CCC(N)=O)C(=O)N[C@@H](C)C(=O)N[C@@H](CCCNC(=N)N)C(=O)N[C@@H](C)C(=O)N[C@@H](CCC(=O)O)C(=O)N[C@@H](C)C(=O)N[C@@H](CC(C)C)C(=O)N[C@@H](CCCNC(=N)N)C(=O)N[C@@H](CCC(N)=O)C(=O)N[C@@H](CCC(N)=O)C(=O)N[C@@H](C)C(=O)N[C@@H](CCCCNC(=O)COCCOCCNC(=O)COCCOCCNC(=O)CC[C@H](NC(=O)CC[C@H](NC(=O)CCCCCCCCCCCCCCCCCCC(=O)O)C(=O)O)C(=O)O)C(=O)N[C@H](C(=O)N[C@@H](CC(N)=O)C(=O)N[C@@H](C)C(=O)N[C@@H](CCC(=O)O)C(=O)N[C@H](C(=O)N[C@@H](CC(C)C)C(=O)N[C@@H](C)C(=O)N[C@@H](CCC(=O)O)C(=O)N[C@H](C(N)=O)C(C)C)[C@@H](C)CC)[C@@H](C)O)[C@@H](C)CC)[C@@H](C)CC)C(C)C)C(C)C` [compound 58] (H-IVLSLDVPIGLLQILLEQARAEALRQQAK([AEEA-AEEA-γGlu-γGlu-C20 diacid])TNAEILAEV-NH2), the EC50 at hCRHR1 (setting [1]) was 100 nM; at hCRHR2 (setting [2]), 0.316 nM.
